“Also recorded” adds a separate entry of the source. Where a SMILES comes first, the peptide text is derived from it. The star is where a group is joined. Cbz = O=C(OCc1ccccc1)*
Columns and labels:
[1] = test system: HCC xenografts (excised xenograft tumors of HAK-1AJ and Focus); experiment: Proteomic screening (TMT) of HCC xenografts treated with DMSO or Compound A; type: cell-based
Procedure: HCC xenografts (excised xenograft tumors of HAK-1AJ and Focus) were treated with either with DMSO, or Compound A for either once (single) or multiple times. Cells were harvested at 24 or 72 hours time points, and proteins were fractionated using a basic pH reverse gradient method. Fractionated samples were labeled using a Tandem Mass Tag (TMT) method. Relative abundance was calculated.

JHH4 cell line = experiment: Proteomic screening in JHH4 cell line under 3D culture; type: cell-based
Procedure: (§1) Both HCC cells, Focus and JHH4 in 3D setting, were cultured continuously for 15 days treated with either DMSO or Compound A, or were first cultured for about 7 days prior to treatment with either DMSO or Compound A for 24 hours or 72 hours. Cells were harvested and proteins were prepared from the cells for proteomics analysis. The growth of the cells on control plates was also analyzed. In particular, cells were plated in media containing either DMSO or Compound A. Cells were cultured for certain time, and then were harvested onto filter plates. After the plates have dried, scintillation fluid was added to the plates and read on a Top-count reader.

FOCUS cell line = experiment: Proteomic screening in FOCUS cell line under 3D culture; type: cell-based; conditions: 3D conditions
Procedure: as §1

[2] = test system: MST1R (RON), PARP4, MVP, ZFP91, IKBKE, PDE6D, CK1alpha, LGALS2, KAT1, GSPT1, CRBN; experiment: Western blot confirmation of proteins identified in the proteomic studies (FIG. 8); type: cell-based
Description: Representative proteins identified in the proteomic studies were confirmed in western blot analysis, such as those shown in FIG. 8.

ZFP91 [3] = experiment: Western blot of ZFP91 protein level in HCC cell lines Focus and JHH4; type: cell-based; conditions: for effect on Compound A-induced ZFP91 degradation: Focus and JHH4, 2D, 10 μM for 1 hour, then 5 μM Compound A for 6 hours
Procedure: as §1
Focus cells were cultured for 18 days either continuously for 18 days in the medium containing DMSO, Compound A, or Compound B, or cultured for 7 days prior to treating with DMSO, Compound A, or Compound B for 11 days. Then cells were harvested and were treated in 200 μl cold cell lysis buffer (1% Triton X-100 from Cell Signaling supplemented with protease inhibitors and phophatase inhibitors from Roche) to generate cell lysate. Proteins from cell lysate were separated by 4-12% nupage gels (Invitrogen) and transferred to nitrocellulose membranes. Immunoblots were then probed with antibodies recognizing CRBN, ZFP91 (LSBio) and β-actin (Li-Cor). Signals were detected with a Li-Cor Odyssey Imager. As shown, the level of ZFP91 reduced in response to treatment with Compound A or Compound B.
(§2) HCC cells from both Focus and JHH4 cell lines in 2D setting treated with Compound A for 6 hours, 24 hours, and 72 hours, and JHH4 cells in 3D setting treated with Compound A for 15 days were also analyzed by western blot. Cells were harvested and were treated in 200 μl cold cell lysis buffer (1% Triton X-100 from Cell Signaling supplemented with protease inhibitors and phophatase inhibitors from Roche) to generate cell lysate. Proteins from cell lysate were separated by 4-12% Nupage gels (Invitrogen) and transferred to nitrocellulose membranes. Immunoblots were then probed with antibodies recognizing CRBN, ZFP91 (LSBio), P-TBK1, and β-actin (Li-Cor). Signals were detected with a Li-Cor Odyssey Imager. As shown, the level of ZFP91 reduced in response to treatment with Compound A for 6 hours, 24 hours, or 72 hours in both cell lines in 2D setting. […] The level of CRBN increased in response to treatment with Compound A for 6 hours, 24 hours, or 72 hours in both cell lines in 2D setting. […] ZFP91 degradation induced by various doses of Compound A for various time periods was also tested in both Focus and JHH4 cells, as shown in FIG. 4C.
HCC cells from both Focus and JHH4 cell lines in 2D setting were first treated with 10 μM MG132 or MLN4924 for 1 hour, and then were treated with 5 μM DMSO or 5 μM Compound A for 6 hours. Cells were harvested and were treated in cell lysis buffer to generate cell lysate. Proteins from cell lysate were separated by gel electrophoresis and transferred to nitrocellulose membranes. Immunoblots were then probed with antibodies recognizing CRBN, ZFP91 (LSBio), and β-actin (Li-Cor). The results were shown in FIG. 5A, and as shown, both […] or MLN4924 inhibited ZFP91 degradation. MG132 activates c-Jun N-terminal kinase (JNK1), which initiates apoptosis. […] MLN4924 is a NAE1 inhibitor that blocks the activity of Cullin Ring Ligases (CRLs), such as CRL4CRBN.

CRBN [4] = experiment: Western blot of CRBN protein level in HCC cell lines Focus and JHH4; type: cell-based
Procedure: as §2, with “Both HCC cells, Focus and JHH4 in 3D setting, were cultured continuously for 15 days treated with either DMSO or Compound A, or were first cultured for about 7 days prior to treatment with either DMSO or Compound A for 24 hours or 72 hours. Cells were harvested and proteins were prepared from the cells for proteomics analysis. The growth of the cells on control plates was also analyzed. In particular, cells were plated in media containing either DMSO or Compound A. Cells were cultured for certain time, and then were harvested onto filter plates. After the plates have dried, scintillation fluid was added to the plates and read on a Top-count reader. HCC” for “HCC”

P-TBK1 = experiment: Western blot of P-TBK1 in HCC cells; type: cell-based; conditions: 3D setting
Procedure: as §2

ZFP91 [5] = experiment: Western blot of ZFP91 level in Hep3B cells; type: cell-based, human
Procedure: The change of ZFP91 level in response to Compound A or Compound B treatments was also evaluated in human hepatoma Hep3B cell lines. Hep3B cells were treated with Compound A or Compound B, and cells were harvested and treated in lysis buffer to generate cell lysate. Proteins from cell lysate were separated by electrophoresis gel and transferred to nitrocellulose membranes. Immunoblots were then probed with antibodies recognizing CRBN, ZFP91, and β-actin. Signals were detected with a Li-Cor Odyssey Imager. The results were shown in the upper panel of FIG. 6A. […] Thus, ZFP91 may be degraded in response treatment compounds regardless of growth response of the cells to the treatment compounds.

ZFP91 [6] = experiment: Western blot of ZFP91 level in glioblastoma cell lines U87 and SNB19; type: cell-based, human; conditions: U87 and SNB19 cells
Procedure: The change of ZFP91 level in response to treatment compounds was evaluated in other solid tumor cell lines, e.g., glioblastoma (GBM) cell lines. […] Proteins from cell lysate were separated by electrophoresis gel and transferred to nitrocellulose membranes. Immunoblots were then probed with antibodies recognizing ZFP91 and β-actin. Signals were detected with a Li-Cor Odyssey Imager.

Hep3B cells = experiment: Growth response of Hep3B cells to treatment compounds (FIG. 6B); type: cell-based, human
U87 tumor = experiment: U87 xenograft tumor growth; type: in vivo; conditions: 3 and 30 mg/kg qd
ZFP91 [7] = experiment: Immunostaining of ZFP91 in U87 xenograft tissue; type: in vivo
Focus cells = experiment: Colony growth on control plates, 3D Focus cells; type: cell-based; conditions: vs DMSO
JHH4 cells = experiment: Colony growth on control plates, 3D JHH4 cells; type: cell-based; conditions: 3D JHH4, control plates, vs DMSO
ZFP91 [8] = experiment: Western blot of ZFP91 protein level in HCC cell lines Focus and JHH4; type: cell-based; conditions: for effect of the compound on ZFP91 after knocking down of CRBN: CRBN knockdown, Focus and JHH4 cells
NF-κB = conditions: read-out: IC50 NF-κB activation; cited from earlier work
CRBN [9] = biological target: CRBN (Homo sapiens, UniProt Q96SW2); conditions: in vitro; cited from earlier work
[10] = Focus and JHH4, 2D setting, 6 hours, 24 hours or 72 hours
[11] = Focus and JHH4, 3D, control plate and proteomic preparation, beta-actin control
[12] = Focus cells, 18 days continuous, or 7 days culture then 11 days treatment

CRBN (Homo sapiens, UniProt Q96SW2), sequence (Q96SW2 whole entry, species assumed): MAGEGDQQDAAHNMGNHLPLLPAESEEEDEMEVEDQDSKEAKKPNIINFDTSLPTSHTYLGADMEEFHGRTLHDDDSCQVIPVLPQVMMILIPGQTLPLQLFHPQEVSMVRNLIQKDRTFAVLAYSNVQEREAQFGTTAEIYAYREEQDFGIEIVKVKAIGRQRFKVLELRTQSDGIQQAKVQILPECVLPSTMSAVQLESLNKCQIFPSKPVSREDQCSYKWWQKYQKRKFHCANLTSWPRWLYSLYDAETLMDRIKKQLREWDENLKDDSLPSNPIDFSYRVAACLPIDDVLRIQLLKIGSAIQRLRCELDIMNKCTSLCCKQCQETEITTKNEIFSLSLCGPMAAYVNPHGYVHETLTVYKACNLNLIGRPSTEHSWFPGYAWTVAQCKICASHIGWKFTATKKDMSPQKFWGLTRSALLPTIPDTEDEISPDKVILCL
CRBN (Homo sapiens, UniProt Q96SW2), sequence (Q16531 whole entry partner, species assumed): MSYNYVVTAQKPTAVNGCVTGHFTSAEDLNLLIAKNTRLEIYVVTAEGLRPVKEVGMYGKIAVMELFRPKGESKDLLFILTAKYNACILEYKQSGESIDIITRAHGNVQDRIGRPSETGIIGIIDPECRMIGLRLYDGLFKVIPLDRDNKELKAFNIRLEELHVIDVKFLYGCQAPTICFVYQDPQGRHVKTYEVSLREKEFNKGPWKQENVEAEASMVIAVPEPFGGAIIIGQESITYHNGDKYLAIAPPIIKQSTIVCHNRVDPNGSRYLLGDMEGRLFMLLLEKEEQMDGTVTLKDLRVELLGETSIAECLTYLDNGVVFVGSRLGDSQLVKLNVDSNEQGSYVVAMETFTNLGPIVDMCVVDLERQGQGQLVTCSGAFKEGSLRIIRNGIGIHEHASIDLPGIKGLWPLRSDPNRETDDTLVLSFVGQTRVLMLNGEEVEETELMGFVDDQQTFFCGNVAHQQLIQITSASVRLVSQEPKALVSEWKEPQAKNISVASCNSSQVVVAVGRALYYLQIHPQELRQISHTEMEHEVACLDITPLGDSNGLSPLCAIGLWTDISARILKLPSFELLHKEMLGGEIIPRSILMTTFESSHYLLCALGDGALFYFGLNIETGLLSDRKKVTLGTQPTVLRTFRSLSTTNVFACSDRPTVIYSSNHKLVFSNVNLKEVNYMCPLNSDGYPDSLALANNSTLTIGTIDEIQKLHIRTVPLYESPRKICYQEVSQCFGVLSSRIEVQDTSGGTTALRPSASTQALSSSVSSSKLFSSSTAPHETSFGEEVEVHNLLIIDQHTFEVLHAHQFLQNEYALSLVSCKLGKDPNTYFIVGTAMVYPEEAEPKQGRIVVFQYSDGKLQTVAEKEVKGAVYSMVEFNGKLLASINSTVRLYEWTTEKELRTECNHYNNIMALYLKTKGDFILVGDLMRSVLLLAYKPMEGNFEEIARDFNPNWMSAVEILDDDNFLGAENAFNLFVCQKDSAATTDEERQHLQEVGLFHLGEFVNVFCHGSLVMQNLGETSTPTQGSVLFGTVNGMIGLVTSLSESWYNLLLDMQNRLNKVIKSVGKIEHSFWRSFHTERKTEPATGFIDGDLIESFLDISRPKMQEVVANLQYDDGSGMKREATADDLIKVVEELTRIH
CRBN (Homo sapiens, UniProt Q96SW2), sequence (Q13619 whole entry partner, species assumed): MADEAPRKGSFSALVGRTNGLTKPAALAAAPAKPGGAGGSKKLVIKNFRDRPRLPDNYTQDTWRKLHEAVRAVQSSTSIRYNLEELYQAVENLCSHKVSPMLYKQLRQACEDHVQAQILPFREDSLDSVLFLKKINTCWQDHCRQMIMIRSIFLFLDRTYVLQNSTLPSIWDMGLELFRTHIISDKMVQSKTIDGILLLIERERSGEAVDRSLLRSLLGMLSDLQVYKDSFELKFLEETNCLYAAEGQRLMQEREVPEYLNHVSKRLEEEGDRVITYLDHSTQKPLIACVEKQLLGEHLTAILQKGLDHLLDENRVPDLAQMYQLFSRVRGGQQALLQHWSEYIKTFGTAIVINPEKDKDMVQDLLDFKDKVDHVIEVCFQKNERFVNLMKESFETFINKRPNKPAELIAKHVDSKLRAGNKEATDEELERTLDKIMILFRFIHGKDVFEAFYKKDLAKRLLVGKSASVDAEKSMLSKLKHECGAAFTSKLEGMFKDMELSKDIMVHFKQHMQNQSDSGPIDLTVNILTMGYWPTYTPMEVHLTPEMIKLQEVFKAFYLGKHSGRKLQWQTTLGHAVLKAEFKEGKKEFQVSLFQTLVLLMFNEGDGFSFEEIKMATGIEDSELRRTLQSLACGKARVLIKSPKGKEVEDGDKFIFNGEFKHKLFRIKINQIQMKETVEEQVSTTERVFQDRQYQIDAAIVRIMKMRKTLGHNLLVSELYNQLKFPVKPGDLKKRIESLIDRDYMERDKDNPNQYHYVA
CRBN (Homo sapiens, UniProt Q96SW2), sequence (P62877 whole entry partner, species assumed): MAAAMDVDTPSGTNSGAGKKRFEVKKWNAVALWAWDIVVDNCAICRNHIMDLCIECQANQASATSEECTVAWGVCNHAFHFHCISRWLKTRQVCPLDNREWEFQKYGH

Cc1nc2cccc(N)c2c(=O)n1C1CCC(=O)NC1=O (centres unmarked) [Compound A, 3-(5-amino-2-methyl-4-oxo-4H-quinazolin-3-yl)-piperidine-2,6-dione]
proteins commonly differentially abundant after treatment ([1]; 24 hours after treatment, both Focus and HAK-1AJ, compared with DMSO): WIBG, KAT1, Nestin, PARP4, and MVP
proteins downregulated in response to treatment ([1]; proteomic screening study): MVP, PARP4, ZFP91, and ZNF198
proteins upregulated in response to treatment ([1]; proteomic screening study): Nestin, KAT1/CCBL1, and WIBG; also recorded: Nestin, KAT1/CCBL1, WIBG, CK1-alpha, GSPT1
regulation of the proteins listed in Table 5 (JHH4 cell line; JHH4, 3D conditions): downregulated
regulation of the proteins listed in Table 3 (JHH4 cell line; JHH4, 3D culture, basement membrane extracellular matrix): upregulated
regulation of the proteins listed in Table 4 (FOCUS cell line): upregulated
regulation of the proteins listed in Table 6 (FOCUS cell line): downregulated
proteins whose levels increased in response to treatment [2]: CK1alpha, LGALS2, KAT1, GSPT1 as well as CRBN
proteins whose levels reduced in response to treatment [2]: MST1R (RON), RARP4, MVP, ZFP91, IKBKE, PDE6D
level of ZFP91 (ZFP91 [3]; [10]): reduces
level of ZFP91 protein (ZFP91 [3]; [11]): reduced
level of ZFP91 (ZFP91 [3]; [12]): reduces
level of ZFP91 (ZFP91 [3]; JHH4, 3D setting, 15 days): reduced
level of CRBN (CRBN [4]; [10]): increases
level of CRBN protein (CRBN [4]; [11]): increased
level of CRBN (CRBN [4]; JHH4, 3D setting, 15 days): increased
P-TBK1 level (P-TBK1): upregulated
ZFP91 level (ZFP91 [5]): down-regulated
ZFP91 level (ZFP91 [6]): down-regulated
sensitivity of Hep3B cells to the compound (Hep3B cells): not
U87 tumor growth (U87 tumor): significantly inhibits
ZFP91 in U87 xenograft tissue (ZFP91 [7]): degrades
colony number (Focus cells): reduced
total colony area (Focus cells): reduced
colony number (JHH4 cells): reduced
total colony area (JHH4 cells): reduced
effect of the compound on ZFP91 after knocking down of CRBN (ZFP91 [8]): reversed
level of ZFP91 under protein synthesis inhibition (ZFP91 [8]; Focus and JHH4 cells treated with 100 ug/ml cycloheximide (CHX)): decreased; also recorded: accelerates

O=C1CCC(N2Cc3c(OCc4ccc(CN5CCOCC5)cc4)cccc3C2=O)C(=O)N1 (centres unmarked) [Compound B, 3-[4-(4-Morpholin-4-ylmethyl-benzyloxy)-1-oxo-1,3-dihydro-isoindol-2-yl]-piperidine-2,6-dione]
level of ZFP91 (ZFP91 [3]; [12]): reduces
ZFP91 level (ZFP91 [5]): down-regulated
sensitivity of Hep3B cells to the compound (Hep3B cells): sensitive
effect of the compound on ZFP91 after knocking down of CRBN (ZFP91 [8]): reversed

CC(C)C[C@@H](C=O)NC(=O)[C@H](CC(C)C)NC(=O)[C@H](CC(C)C)NC(=O)OCc1ccccc1 [MG132, reference compound] (Cbz-Leu-Leu-Leu-aldehyde)
effect on Compound A-induced ZFP91 degradation (ZFP91 [3]): inhibited; also recorded: block
effect on reduction of ZFP91 by Compound A or Compound B (ZFP91 [5]): blocked
effect on reduction of ZFP91 by treatment compounds (ZFP91 [6]): blocked
IC50 (NF-κB): 3000 nM

NS(=O)(=O)OC[C@@H]1C[C@@H](n2ccc3c(N[C@H]4CCc5ccccc54)ncnc32)C[C@@H]1O [MLN4924, reference compound]
effect on Compound A-induced ZFP91 degradation (ZFP91 [3]): inhibited
effect on Compound A-induced ZFP91 degradation (ZFP91 [3]; listed as MLN): block
effect on reduction of ZFP91 by Compound A or Compound B (ZFP91 [5]): blocked
effect on reduction of ZFP91 by treatment compounds (ZFP91 [6]): blocked

O=C1CCC(N2C(=O)c3ccccc3C2=O)C(=O)N1 (centres unmarked) [thalidomide, 2-(2,6-dioxopiperidin-3-yl)-1H-isoindole-1,3(2H)-dione]
auto-ubiquitination of CRBN (CRBN [9]): inhibit
